pIC50: −log10 of the molar value.
Biological target: T1, human MGL from HeLa cells (Homo sapiens, UniProt Q99685)
T1 construct: combining endogenously expressed MGL from HeLa cells with test compounds; endogenous in cells; host or cells: HeLa cells / cell homogenates
T1 sequence (Q99685 1-303): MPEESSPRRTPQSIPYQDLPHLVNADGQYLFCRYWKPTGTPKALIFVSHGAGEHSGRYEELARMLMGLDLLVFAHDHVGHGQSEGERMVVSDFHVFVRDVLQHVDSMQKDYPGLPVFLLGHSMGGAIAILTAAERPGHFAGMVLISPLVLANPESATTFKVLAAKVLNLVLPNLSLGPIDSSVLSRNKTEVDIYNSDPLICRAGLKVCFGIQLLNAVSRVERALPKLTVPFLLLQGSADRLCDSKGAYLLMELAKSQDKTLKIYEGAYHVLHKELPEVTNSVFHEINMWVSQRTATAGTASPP
Experiment: In vitro MGL activity assay: [glycerol-1,3-3H]-oleyl glycerol cleavage by MGL from HeLa cells
Type: biochemical
Details: 300 nM [Glycerol-1,3-3H]-oleyl glycerol, one hour
From the text: MGL is the predominant hydrolase in HeLa cells/cell homogenates.

Row | Compound | pIC50
1 | C[C@H]1c2nn(C)c(-c3cccc(OC(F)F)c3)c2CCN1C(=O)c1ccc2ncccc2c1 [Example 499, [(7S)-3-[3-(Difluoromethoxy)phenyl]-2,7-dimethyl-5,7-dihydro-4H-pyrazolo[3,4-c]pyridin-6-yl]-(6-quinolyl)methanone] | 7.35
2 | C[C@H]1c2nn(C)c(-c3cc(F)c(F)c(F)c3)c2CCN1C(=O)c1c(C(F)(F)F)nc2ccccn12 [Example 413, [(7S)-2,7-Dimethyl-3-(3,4,5-trifluorophenyl)-5,7-dihydro-4H-pyrazolo[3,4-c]pyridin-6-yl]-[2-(trifluoromethyl)imidazo[1,2-a]pyridin-3-yl]methanone] | 7.64
3 | COc1c(C(=O)N2CCc3c(nn(C)c3-c3cc(F)c(F)c(F)c3)[C@@H]2C)ccnc1C [Example 599, [(7S)-2,7-Dimethyl-3-(3,4,5-trifluorophenyl)-5,7-dihydro-4H-pyrazolo[3,4-c]pyridin-6-yl]-(3-methoxy-2-methyl-4-pyridyl)methanone] | 7.15
4 | C[C@H]1c2nn(C)c(-c3ccc4ccoc4c3)c2CCN1C(=O)c1ccc2ncccc2c1 [Example 532, [(7S)-3-(Benzofuran-6-yl)-2,7-dimethyl-5,7-dihydro-4H-pyrazolo[3,4-c]pyridin-6-yl]-(6-quinolyl)methanone] | 7.19
5 | Cc1ccn2c(C(=O)N3CCc4c(nn(C)c4-c4cc(F)c(F)c(F)c4)[C@@H]3C)cnc2c1 [Example 399, [(7S)-2,7-Dimethyl-3-(3,4,5-trifluorophenyl)-5,7-dihydro-4H-pyrazolo[3,4-c]pyridin-6-yl]-(7-methylimidazo[1,2-a]pyridin-3-yl)methanone] | 7.20
6 | Cc1cc(C(=O)N2CCc3c(nn(C)c3-c3cc(F)c(F)c(F)c3)[C@@H]2C)c2cnn(C)c2n1 [Example 424, (1,6-Dimethylpyrazolo[3,4-b]pyridin-4-yl)-[(7S)-2,7-dimethyl-3-(3,4,5-trifluorophenyl)-5,7-dihydro-4H-pyrazolo[3,4-c]pyridin-6-yl]methanone] | 7.97
7 | COc1ccc(F)cc1-c1c2c(nn1C)[C@H](C)N(C(=O)c1ccc3ncccc3c1)CC2 [Example 508, [(7S)-3-(5-Fluoro-2-methoxy-phenyl)-2,7-dimethyl-5,7-dihydro-4H-pyrazolo[3,4-c]pyridin-6-yl]-(6-quinolyl)methanone] | 7.15
8 | Cc1nn(C)cc1C(=O)N1CCc2c(nn(C)c2-c2cc(F)c(F)c(F)c2)[C@@H]1C [Example 343, (1,3-Dimethylpyrazol-4-yl)-[(7S)-2,7-dimethyl-3-(3,4,5-trifluorophenyl)-5,7-dihydro-4H-pyrazolo[3,4-c]pyridin-6-yl]methanone] | 6.51
9 | C[C@H]1c2nn(C)c(-c3cc(F)c(F)c(F)c3)c2CCN1C(=O)c1ccnc2c1CCCO2 [Example 564, 3,4-Dihydro-2H-pyrano[2,3-b]pyridin-5-yl-[(7S)-2,7-dimethyl-3-(3,4,5-trifluorophenyl)-5,7-dihydro-4H-pyrazolo[3,4-c]pyridin-6-yl]methanone] | 7.23
10 | C[C@H]1c2nn(C)c(-c3cc(F)c(F)c(F)c3)c2CCN1C(=O)c1ncnc2c1cnn2C [Example 471, [(7S)-2,7-Dimethyl-3-(3,4,5-trifluorophenyl)-5,7-dihydro-4H-pyrazolo[3,4-c]pyridin-6-yl]-(1-methylpyrazolo[3,4-d]pyrimidin-4-yl)methanone] | 7.49
11 | C[C@H]1c2nn(C)c(-c3cc(F)c(F)c(F)c3)c2CCN1C(=O)c1ccnc2[nH]cc(F)c12 [Example 605, [(7S)-2,7-Dimethyl-3-(3,4,5-trifluorophenyl)-5,7-dihydro-4H-pyrazolo[3,4-c]pyridin-6-yl]-(3-fluoro-1H-pyrrolo[2,3-b]pyridin-4-yl)methanone] | 8.96
12 | CC1c2nn(C34CC(C3)C4)c(-c3ccccc3)c2CCN1C(=O)c1cnn(C)c1C1CC1 (single isomer, unassigned) [Example 342, (S*)-(2-(Bicyclo[1.1.1]pentan-1-yl)-7-methyl-3-phenyl-2,4,5,7-tetrahydro-6H-pyrazolo[3,4-c]pyridin-6-yl)(5-cyclopropyl-1-methyl-1H-pyrazol-4-yl)methanone] | 6.59

The next lines start with the values.

Row | pIC50 | Compound
13 | 7.89 | C[C@H]1c2nn(C)c(-c3cc(F)c(F)c(F)c3)c2CCN1C(=O)c1c(C(F)F)nc2ccccn12 [Example 412, [2-(Difluoromethyl)imidazo[1,2-a]pyridin-3-yl]-[(7S)-2,7-dimethyl-3-(3,4,5-trifluorophenyl)-5,7-dihydro-4H-pyrazolo[3,4-c]pyridin-6-yl]methanone]
14 | 8.21 | C[C@H]1c2nn(C)c(-c3cc(F)c(F)c(F)c3)c2CCN1C(=O)c1ncnc2ccccc12 [Example 482, [(7S)-2,7-Dimethyl-3-(3,4,5-trifluorophenyl)-5,7-dihydro-4H-pyrazolo[3,4-c]pyridin-6-yl]-quinazolin-4-yl-methanone]
15 | 8.05 | Cc1c(C(=O)N2CCc3c(nn(C)c3-c3cc(F)c(F)c(F)c3)[C@@H]2C)ccn1C [Example 351, (1,2-Dimethylpyrrol-3-yl)-[(7S)-2,7-dimethyl-3-(3,4,5-trifluorophenyl)-5,7-dihydro-4H-pyrazolo[3,4-c]pyridin-6-yl]methanone]
16 | 7.87 | C[C@H]1c2nn(C)c(-c3cc(F)c(F)c(F)c3)c2CCN1C(=O)c1cccc2[nH]c(=O)oc12 [Example 587, 7-[(7S)-2,7-Dimethyl-3-(3,4,5-trifluorophenyl)-5,7-dihydro-4H-pyrazolo[3,4-c]pyridine-6-carbonyl]-3H-1,3-benzoxazol-2-one]
17 | 6.18 | C[C@H]1c2nn(C)c(-c3cc(F)c(F)c(F)c3)c2CCN1C(=O)c1cccc2[nH]nnc12 [Example 367, 1H-Benzotriazol-4-yl-[(7S)-2,7-dimethyl-3-(3,4,5-trifluorophenyl)-5,7-dihydro-4H-pyrazolo[3,4-c]pyridin-6-yl]methanone]
18 | 8.14 | C[C@H]1c2nn(C)c(-c3cc(F)c(F)c(F)c3)c2CCN1C(=O)c1cccc2c1OCCN2 [Example 592, 3,4-Dihydro-2H-1,4-benzoxazin-8-yl-[(7S)-2,7-dimethyl-3-(3,4,5-trifluorophenyl)-5,7-dihydro-4H-pyrazolo[3,4-c]pyridin-6-yl]methanone]
19 | 7.83 | C[C@H]1c2nn(C)c(-c3cc(F)c(F)c(F)c3)c2CCN1C(=O)c1n[nH]c2ccccc12 [Example 361, [(7S)-2,7-Dimethyl-3-(3,4,5-trifluorophenyl)-5,7-dihydro-4H-pyrazolo[3,4-c]pyridin-6-yl]-(1H-indazol-3-yl)methanone]

Same assay, conditions: 300 nM [Glycerol-1,3-3H]-oleyl glycerol, one hour incubation

Row | Compound | pIC50
20 | C[C@H]1c2nn(C)c(-c3cc(F)c(F)c(F)c3)c2CCN1C(=O)c1cnc2cccnc2c1 [Example 245, (S)-(2,7-Dimethyl-3-(3,4,5-trifluorophenyl)-2,4,5,7-tetrahydro-6H-pyrazolo[3,4-c]pyridin-6-yl)(1,5-naphthyridin-3-yl)methanone] | 6.92
21 | C[C@H]1c2nn(C)c(-c3cc(F)cc(Cl)c3)c2CCN1C(=O)c1ccc2ncccc2c1 [Example 178, (S)-(3-(3-Chloro-5-fluorophenyl)-2,7-dimethyl-2,4,5,7-tetrahydro-6H-pyrazolo[3,4-c]pyridin-6-yl)(quinolin-6-yl)methanone] | 8.38
22 | COc1c(Cl)cccc1C(=O)N1CCc2c(nn(C)c2-c2ccccc2)C1 [Example 14, (3-Chloro-2-methoxy-phenyl)-(2-methyl-3-phenyl-5,7-dihydro-4H-pyrazolo[3,4-c]pyridin-6-yl)methanone] | 5.59
23 | CC1c2nn(-c3ccccc3)c(-c3ccccc3)c2CCN1C(=O)c1ccc2ncccc2c1 (centres unmarked) [Example 113, (7-Methyl-2,3-diphenyl-2,4,5,7-tetrahydro-6H-pyrazolo[3,4-c]pyridin-6-yl)(quinolin-6-yl)methanone] | 6.63
24 | CC(C)Oc1cncc(C(=O)N2CCc3c(nn(C)c3-c3cc(F)c(F)c(F)c3)[C@@H]2C)c1 [Example 305, [(7S)-2,7-Dimethyl-3-(3,4,5-trifluorophenyl)-5,7-dihydro-4H-pyrazolo[3,4-c]pyridin-6-yl]-(5-isopropoxy-3-pyridyl)methanone] | 6.64
25 | C[C@H]1c2nn(C)c(-c3cc(F)c(F)c(F)c3)c2CCN1C(=O)c1cccc(-c2cnn(C)c2)c1 [Example 273, [(7S)-2,7-Dimethyl-3-(3,4,5-trifluorophenyl)-5,7-dihydro-4H-pyrazolo[3,4-c]pyridin-6-yl]-[3-(1-methylpyrazol-4-yl)phenyl]methanone] | 7.03
26 | COc1cc(C(=O)N2CCc3c(nn(C)c3-c3cc(F)c(F)c(F)c3)[C@@H]2C)ccn1 [Example 312, [(7S)-2,7-Dimethyl-3-(3,4,5-trifluorophenyl)-5,7-dihydro-4H-pyrazolo[3,4-c]pyridin-6-yl]-(2-methoxy-4-pyridyl)methanone] | 7.09
27 | Cn1nc2c(c1-c1ccccc1)CCN(C(=O)c1cccc3ccccc13)C2 [Example 1, (2-Methyl-3-phenyl-2,4,5,7-tetrahydro-6H-pyrazolo[3,4-c]pyridin-6-yl)(naphthalen-1-yl)methanone] | 7.89

Further lines, results first:

Row | pIC50 | Compound
28 | 8.02 | C[C@H]1c2nn(C)c(-c3cc(F)c(F)c(F)c3)c2CCN1C(=O)c1cccn2nccc12 [Example 227, (S)-(2,7-Dimethyl-3-(3,4,5-trifluorophenyl)-2,4,5,7-tetrahydro-6H-pyrazolo[3,4-c]pyridin-6-yl)(pyrazolo[1,5-a]pyridin-4-yl)methanone]
29 | 7.10 | C[C@H]1c2nn(C)c(-c3cc(F)c(F)c(F)c3)c2CCN1C(=O)c1cn(C)c2cnccc12 [Example 221, (S)-(2,7-Dimethyl-3-(3,4,5-trifluorophenyl)-2,4,5,7-tetrahydro-6H-pyrazolo[3,4-c]pyridin-6-yl)(1-methyl-1H-pyrrolo[2,3-c]pyridin-3-yl)methanone]
